The text below walks through data of patent US20040235900A1, “Antimicrobial oxazolifinones with improved pharmacokinetic profile and safety advantages” (priority 2002, published 2004).

Usually melting point stands for the temperature, or range, at which the solid turns liquid. A word on the Cmax: it is the peak of the concentration-time curve. As a reminder, the half-life is the time needed for the level to fall by half in the phase considered. A higher half-life goes with slow decline. In general, ED50 refers to the midpoint of the dose-response relation.

≈ marks a conversion by molar mass, not a printed value.

Data set [1] concerns Streptococcus pneumoniae ATCC 49619. Nature of the data set: In-vitro MIC test (agar dilution, 5% sheep blood), S. pneumoniae. It is filed as cell-based. The conditions noted are these: ATCC49619, Mueller Hinton agar containing 5% sheep blood, read-out: Minimum Inhibitory Concentrations (MIC) S. pneumoniae. An excerpt: (§1) The test methods used for verifying the antimicrobial action of compound within the scope of this invention are essentially the same as those described in PCT WO 95/25106, U.S. Pat. No. 5,668,286 and EP 0 750, 618 B1, with the difference that the strains of the organisms used for the MIC determinations in these patents and applications are Staphylococcus aureus ATCC 25923, Staphylococcus epidermidis ATCC 12828, Streptococcus pyogenes ATCC 19615.
(§2) The in-vitro MIC methods of test compounds were determined essentially as described in PCT WO 95/25106, U.S. Pat. No. 5,668,286 and EP 0 750 618 B1.
(§3) Overnight grown cultures of S. aureus organisms in Tryptic Soya broth were diluted in Mueller Hinton Broth to give optical density matching with MacFarland tube 0.5 standard. Cultures were further diluted 1:10 in Mueller Hinton broth. Using Denley's mutipoint inoculator, 10^4 cells were deposited on Mueller Hinton agar (Difco) containing range of 2 fold dilutions of test compounds. These plates were incubated for 24 hrs at 35° C. and MIC results recorded. MIC is defined as minimum drug concentration that inhibits test organisms. For determining MIC of test compounds against Streptococcus pneumoniae, Mueller Hinton agar containing 5% sheep blood was employed.
Background: In agar dilution, organisms are placed on agar that contains the substance at set levels.

Data set [2] has as its system Enterococcus faecalis ATCC 29212. Kind of data set: In-vitro MIC test (agar dilution), E. faecalis. It is filed as cell-based. The conditions noted are these: ATCC29212, Mueller Hinton agar, 24 hrs at 35° C., read-out: Minimum Inhibitory Concentrations (MIC) E. faecalis.
Description: as §1, §2, §3

Data set [3] concerns Methicillin Resistant Staphylococcus aureus MRSA-32. Nature of the data set: In-vitro MIC test (agar dilution), MRSA-32. It is filed as cell-based. The conditions noted are these: Mueller Hinton agar, 24 hrs at 35° C.; for MIC: Staphylococcus aureus, MRSA, read-out: Minimum Inhibitory Concentrations (MIC) MRSA-32.
Description: as §1, §2, §3

Data set [4] is described as follows: Pharmacokinetic study, single I.V. bolus dose in beagle dog. It is filed as in vivo. Conditions: iv, single I.V. bolus dose 15 mg/kg (table title), Compound No. 4 and linezolid in 5% Tween, other compounds in cyclodextrin, serum; for concentration at 12 hr: read-out: C-12 hr; for AUC(0-t): read-out: AUC (0-24 hr). The protocol:
Blood samples were collected at time points of 0, 0.08 (not for oral), 0.25, 0.50, 1.0, 1.5, 2.0, 3.0, 4.0, 5.0, 6.0, 8.0, 10.0, 12.0 and 24.0 hours. To facilitate i.v. dosing and collection of blood samples, the dogs were implanted with cannula in cephalic vein. Serum obtained from blood samples was used for HPLC-based analysis.
(§4) Serum samples were extracted by solid phase extraction technique using Water's OASIS HLB cartridges. An HPLC-Diode array detection system was used for analysis. Prepared samples were chromatographed on a YMC-AM reversed phase column (150×4.6 mm ID; 5 μm) using an isocratic mobile phase acetate buffer (50 mmol ammonium acetate pH 6.6) acetonitrile, 66:34% v/v (for a representative compound of the invention, 68:32% v/v for compound Nos. 30, 3, 7 and 11 of U.S. Pat. No. 5,668,286, and 75:25% v/v for linezolid) at a flow rate of 1 ml/min, measured at λmax 254 nm. Independently prepared analytical standards and quality control samples were analyzed with each set of unknown samples.
The pharmacokinetics of a representative compound of the invention following single I.V. bolus dose administration of the compound in beagle dog is shown in Table 3.

Data set [5] in a line: Pharmacokinetic study, single oral dose in beagle dog. It is filed as in vivo. The conditions noted are these: serum, single oral dose 5 mg/kg p.o., Compound No. 4 and linezolid in 5% Tween, other compounds in cyclodextrin; for AUC(0-t): read-out: AUC (0-24 hr); for concentration at 12 hr: read-out: C-12 hr. The protocol: Oral (5 mg/kg) and intravenous (5 mg/kg bolus) pharmacokinetic studies were done in dog. Blood samples were collected at time points of 0, 0.08 (not for oral), 0.25, 0.50, 1.0, 1.5, 2.0, 3.0, 4.0, 5.0, 6.0, 8.0, 10.0, 12.0 and 24.0 hours. To facilitate i.v. dosing and collection of blood samples, the dogs were implanted with cannula in cephalic vein. Serum obtained from blood samples was used for HPLC-based analysis.
as §4
The pharmacokinetics of a representative compound of the invention following single oral dose administration of the compound in beagle dog is shown in Table 2.

In another data set the test system is MRSA 32. Nature of the data set: Murine assay procedure (systemic MRSA 32 infection, oral treatment). It is filed as in vivo, swiss mice. Conditions: Staphylococcus aureus; oral administration, doses 1 hr and 4 hrs after infection; MRSA 32 infected mice; percentage survival on Day 7. As to the method: Oxazolidinone new chemical entities (NCEs) were evaluated for their in vivo efficacy in a murine infection caused by multi-drug resistant, methicillin resistant Staphylococcus aureus strain, referred to as MRSA 32, a clinical isolate obtained from a hospitalised patient. The procedure used for the murine assay is as follows:
Four weeks old swiss mice of 18-22 gm body weight were infected with MRSA 32 strain suspended in 5% Hog gastric Mucin. The infecting dose of bacteria was set at 1-2×10^8 CFU/animal. The infecting dose was administered in 0.5 ml volume injected into peritonial cavity of mice. The treatment with oxazolidinone NCEs was started one hour after infection by administering 100-200 μl of the suspensions of oxazolidinone compounds in 5% Tween 80 by oral gavage. A repeat dose was similarly administered 3 hrs later. Each oxazolidinone NCE was tested at 2-3 different dosages in the range of 2.5 mg/kg to 20 mg/kg. In each dose group 6 mice were included. As an infection control group 12 mice were infected with MRSA 32 strain without giving any treatment. Normally untreated infected mice die within 24 hrs. due to the systemic spread of infection through out the animal body. […] For compounds affording protection of MRSA infected mice, ED50 dosages were calculated on the basis of percentage survival on Day 7 after infection.
The in-vivo ED50 values using the test compounds were determined essentially by the method as described in PCT WO 95/25106, U.S. Pat. No. 5,668,286 and EP 0 750 618 B1.

For the compound `CCCC(C#N)C1CCN(c2ccc(N3C[C@H](CNC(C)=O)OC3=O)cc2F)CC1` (stereo partly drawn) [Compound 16, (S)-N-{3-[4-(4-(1-cyanobutyl)-piperidin-1-yl)-3-fluoro-phenyl]-2-oxo-oxazolidin-5-ylmethyl}-acetamide], the melting point is 180 to 182 °C. Also, in data set [1], the MIC was 4 µg/mL (≈ 9.6 µM). Also, in data set [2], the MIC was 4 µg/mL (≈ 9.6 µM). Moreover, the MIC in data set [3] worked out at 4 µg/mL (≈ 9.6 µM).

`CC(=O)NC[C@H]1CN(c2ccc(N3CCC(C(C#N)C(=O)O)CC3)c(F)c2)C(=O)O1` (stereo partly drawn) [Compound 18, (S)-N-{3-[4-(4-(1-cyano-1-hydroxycarbonyl)-piperidin-1-yl)-3-fluoro-phenyl]-2-oxo-oxazolidin-5-ylmethyl}-acetamide] returned a melting point of 198 to 200 °C.

In the case of `N#CCC1CCN(c2ccc(N3C[C@H](CNC(=O)C(F)(F)F)OC3=O)cc2F)CC1` [Compound 8, (S)-N-{3-[4-(4-cyanomethyl-piperidin-1-yl)-3-fluoro-phenyl]-2-oxo-oxazolidin-5-ylmethyl}-trifluoroacetamide], the MIC in data set [1] was 2 µg/mL (≈ 4.67 µM); in data set [2], 8 µg/mL (≈ 18.7 µM); in data set [3], 4 µg/mL (≈ 9.34 µM).

`CC(=O)NC[C@H]1CN(c2ccc(N3CCC(CC#N)C(C)C3)c(F)c2)C(=O)O1` (stereo partly drawn) [Compound 12, (S)-N-{3-[4-((4-cyanomethyl)-3-methyl-piperidin-1-yl)-3-fluoro-phenyl]-2-oxo-oxazolidin-5-ylmethyl}-acetamide] had a melting point of 148 to 149 °C. Further, the MIC in data set [1] is 2 µg/mL (≈ 5.15 µM). Moreover, the MIC in data set [2] amounted to 2 µg/mL (≈ 5.15 µM). In data set [3], the MIC was 2 µg/mL (≈ 5.15 µM).

As to `CC(C)COC(=O)NC[C@H]1CN(c2ccc(N3CCC(CC#N)CC3)c(F)c2)C(=O)O1` [Compound 10, (S)-N-{3-[4-(4-cyanomethyl-piperidin-1-yl)-3-fluoro-phenyl]-2-oxo-oxazolidin-5-ylmethyl}-isobutylcarbamate], the “Minimum Inhibitory Concentrations (MIC) MRSA-32” value in data set [3] was >16.0 µg/mL.

For `CC(=O)NC[C@H]1CN(c2ccc(N3CCC(O)CC3)c(F)c2)C(=O)O1` [U.S. Pat. No. 5,668,286 (No. 3), (S)-N-{3-[3-fluoro-4-(4-hydroxy-piperidin-1-yl)-phenyl]-2-oxo-oxazolidin-5-ylmethyl}-acetamide], in data set [4], the highest level (Cmax) was 6190 ng/mL, the concentration at 12 hr amounted to 0 ng/mL, the half-life is 0.98 h and the AUC(0-t) was found to be 7530 ng·h/mL. In data set [5], the half-life was 1.37 h, the AUC(0-t) is 2740 ng·h/mL, the peak level (Cmax) was 1520 ng/mL and the concentration at 12 hr turned out to be 0 ng/mL.

Turning to `CC(=O)NC[C@H]1CN(c2ccc(N3CCC(CC#N)CC3)cc2)C(=O)O1` [Compound 2, (S)-N-{3-[4-(4-cyanomethyl-piperidin-1-yl)-phenyl]-2-oxo-oxazolidin-5-ylmethyl}-acetamide], in the data set with MRSA 32, the 50% effect level (ED50) was put at a dose of 20 mg/kg. Besides, the MIC in data set [1], in data set [2] and in data set [3] was 2 µg/mL (≈ 5.61 µM) in each case.

With `CC(=O)NC[C@H]1CN(c2ccc(N3CCC(=NO)CC3)c(F)c2)C(=O)O1` [U.S. Pat. No. 5,668,286 (No. 11), (S)-N-{3-[3-fluoro-4-(4-hydroxyimino-piperidin-1-yl)-phenyl]-2-oxo-oxazolidin-5-ylmethyl}-acetamide], in data set [4], the maximum concentration (Cmax) turned out to be 4150 ng/mL, the concentration at 12 hr is 0 ng/mL, the half-life is 0.16 h and the AUC(0-t) is 1320 ng·h/mL. In addition, the concentration at 12 hr in data set [5] was 0 ng/mL.

`CC(=O)NC[C@H]1CN(c2ccc(N3CCC(C(C#N)C#N)CC3)c(F)c2)C(=O)O1` [Compound 19, (S)-N-{3-[4-(4-(1,1-dicyanomethyl)-piperidin-1-yl)-3-fluoro-phenyl]-2-oxo-oxazolidin-5-ylmethyl}-acetamide]: the melting point lay in the range of 223 to 225 °C. Moreover, in data set [1], the MIC came to 1 µg/mL (≈ 2.5 µM). Besides, the MIC in data set [2] worked out at 2 µg/mL (≈ 5.01 µM). Moreover, the MIC in data set [3] turned out to be 2 µg/mL (≈ 5.01 µM).

As to `CC(=O)NC[C@H]1CN(c2ccc(N3CCC(=O)CC3)c(F)c2)C(=O)O1` [U.S. Pat. No. 5,668,286 (No. 7), (S)-N-{3-[3-fluoro-4-(4-oxo-piperidin-1-yl)-phenyl]-2-oxo-oxazolidin-5-ylmethyl}-acetamide], the concentration at 12 hr in data set [4] and in data set [5] was 0 ng/mL in each case.

For the compound `CC(=O)NC[C@H]1CN(c2ccc(N3CCC4(CC3)OCCO4)c(F)c2)C(=O)O1` [U.S. Pat. No. 5,668,286 (No. 30), (S)-N-{3-[4-(1,4-dioxa-8-aza-spiro[4.5]dec-8-yl)-3-fluoro-phenyl]-2-oxo-oxazolidin-5-ylmethyl}-acetamide], in data set [4], the Cmax was 7640 ng/mL, the concentration at 12 hr came to 1190 ng/mL, the half-life was 6.71 h and the AUC(0-t) stood at 45100 ng·h/mL. In addition, in data set [5], the half-life was 6.68 h, the AUC(0-t) came to 47200 ng·h/mL, the highest level (Cmax) was 5310 ng/mL and the concentration at 12 hr is 1840 ng/mL.

`CC(=O)NC[C@H]1CN(c2ccc(N3CCC(C(C)C#N)CC3)c(F)c2)C(=O)O1` (stereo partly drawn) [Compound 14, (S)-N-{3-[4-(4-(1-cyanoethyl)-piperidin-1-yl)-3-fluoro-phenyl]-2-oxo-oxazolidin-5-ylmethyl}-acetamide] gave a melting point of 147 to 148 °C. The MIC in data set [1] was 2 µg/mL (≈ 5.15 µM). The MIC in data set [2] came out at 2 µg/mL (≈ 5.15 µM). Also, the MIC in data set [3] was 2 µg/mL (≈ 5.15 µM).

In the case of `CCC(C#N)C1CCN(c2ccc(N3C[C@H](CNC(C)=O)OC3=O)cc2F)CC1` (stereo partly drawn) [Compound 15, (S)-N-{3-[4-(4-(1-cyanopropyl)-piperidin-1-yl)-3-fluoro-phenyl]-2-oxo-oxazolidin-5-ylmethyl}-acetamide], the melting point lay within 185 to 186 °C. Further, the MIC in data set [1] was found to be 2 µg/mL (≈ 4.97 µM). The MIC in data set [2] is 4 µg/mL (≈ 9.94 µM). In addition, the MIC in data set [3] is 4 µg/mL (≈ 9.94 µM).
